Assay results: US10494404B2, “Quinolinium conjugates of cyclosporin” (priority 2014, dated 2019)

How the values were obtained:
[1] = test system: Ca^2+ mediated PT pore formation; assay: Calcium retention capacity (CRC) assay, isolated WT mouse liver mitochondria; type: biochemical; details: 8 nM
Text: In order to assess the efficiency of compounds on Ca^2+ mediated PT pore formation we measured calcium retention capacity (CRC) of isolated mouse liver mitochondria. […] Energised mitochondria take up Ca^2+, resulting in a declining fluorescent signal following the Ca^2+ bolus induced peak. Mitochondria take up and buffer Ca^2+ up to a threshold when intramitochondrial [Ca^2+] reaches threshold to induce PT. […] The amount of Ca^2+ required to induce PT characterizes its Ca^2+ sensitivity and defines mitochondrial CRC. Inhibition of CypD, the Ca^2+ sensor of PT, thus leads to increased CRC.
Further experiments were carried out using the techniques discussed in Example 4.
Subcellular fractionation was performed as previously described (Astin et al, 2013). […] At 4° C., the liver was rinsed in PBS to remove excess blood, and any fat and connective tissue was eliminated. PBS was then replaced with isolation buffer containing 1 mM PMSF, and the liver was chopped into pieces (approximately 2 mm in length). Tissue was then homogenized in this solution until no solid matter remained, and then centrifuged at 800G for 10 minutes at 4° C. The nuclear pellet was then discarded, and the post nuclear supernatant retained, and centrifuged at 10300G for another 10 minutes at 4° C. The postmitochondrial supernatant was discarded, and the mitochondrial pellet was resuspended in isolation buffer and PMSF, and kept on ice. Protein levels were quantified using a ThermoScientific BCA protein quantification assay, as per manufacturer's instructions.
Isolated mitochondria were resuspended (500 μg protein/ml) in MSK buffer (75 mM mannitol, 25 mM sucrose, 5 mM potassium phosphate monobasic, 20 mM Tris-HCl, 100 mM KCl, and 0.1% bovine serum albumin, pH 7.4) supplemented with 10 mM succinate, 1 μM rotenone and 1 μM Fluo5N. 200 μl mitochondrial suspension per well was used in 96 well microplates. Compounds were incubated for ten minutes before the plate was assayed in a Fluostar Optima plate reader, using Ex/Em filters at 480/520 […]; CaCl2 was injected approximately every 6.5 minutes for 80 minutes (12 total injections, final concentration of 75 μM). To calculate % inhibition of Ca^2+ induced pore opening, first areas under each curve were calculated, and controls without CaCl2 addition were subtracted as background. The background corrected values were then expressed as the fraction of controls without mitochondria, representing the total amount of Ca^2+ added, unbuffered by mitochondria. Percentage inhibition for each [compound] was then calculated as the % of the corresponding value for the untreated condition. […] For experiments with CypD −/− mice, 100 ul mitochondrial suspension per well was used. CaCl2) was injected approximately every 6.5 minutes for 135 minutes (20 total injections, final concentration of 266 μM). Data were background corrected and expressed as the fraction of controls without mitochondria, and then normalised to the wild type no drug condition. Significance was assessed by one way ANOVA.

[2] = biological target: Cylophilin D (CypD) (Homo sapiens, UniProt P30405); assay: Cyclophilin D competitive fluorescence polarization assay; details: competitive FP assay; FP-CsA 45 nM, enzyme 40 nM; read-out: Ki for cylophilin D binding
Sequence of Cylophilin D (CypD) (P30405 30-207): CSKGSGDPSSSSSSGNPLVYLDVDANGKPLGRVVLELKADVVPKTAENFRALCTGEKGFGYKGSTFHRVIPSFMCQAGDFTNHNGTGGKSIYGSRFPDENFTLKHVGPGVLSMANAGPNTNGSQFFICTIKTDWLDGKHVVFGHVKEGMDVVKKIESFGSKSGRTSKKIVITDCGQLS
Protocol: A competitive fluorescence polarization assay (FP-assay) was used.
Polarization was determined by measuring the ratios between parallel and perpendicular polarized light and calculated as described by Roehrl et al 2004.
Titration of a single probe concentration against different enzyme concentrations was used to determine the dissociation constant (Kd) (Nikolovska et al 2004). The inhibitor constant (Ki) was calculated with the equation shown below in Equation A. (Nikolovska et al 2004).
Three replicates were used for this experiment. […] DMSO % in total solution should remain lower than 1%.

[3] = test system: HepG2 cells; assay: HepG2 high content screening of cell health markers; type: cell-based; details: HepG2, 72 h exposure
Protocol: HepG2 cells were plated on 96-well tissue culture treated black walled clear bottomed polystyrene plates, 100 μL, (3000 cells) per well. After 24 hours the cells were dosed with the test compounds at a range of concentrations. At the end of the incubation period, the cells were loaded with the relevant dye/antibody for each cell health markers set out below. The plates were then scanned using an automated fluorescent cellular imager [ArrayScan VTI (Thermo Scientific Cellomics)].
The following cell health markers were measured: • a. Cell count—a decreasing number of cells per well indicates toxicity due to necrosis, apoptosis or a reduction in cellular proliferation. • b. Nuclear area—an increase in nuclear size indicates necrosis or G2 cell cycle arrest and a decrease indicates apoptosis. • c. DNA structure—an increase in DNA structure indicates chromosomal instability and DNA fragmentation. • d. […]
HepG2 cells were seeded in black, clear-bottom 96-well tissue culture plates at a density of 3000 cells per well. […] Cell count, nuclear size and DNA structure were also measured Hoechst 33342 (Life Technologies). Following staining of the HepG2 cells fluorescence was analyzed by image acquisition with a Thermo Fisher Cellomics® ArrayScanVTI High Content Screening Reader (ThermoFisher Scientific Inc., Waltham, Mass.) and vHCS™ view software (ThermoFisher Scientific Inc.). […]

Row | SMILES | inhibition of Ca2+ mediated PT pore formation [1] | Ki [2] [µM] | toxicity (cell health markers) compared with unmodified CsA [3]
1 | CC[C@@H]1NC(=O)[C@H]([C@H](O)[C@H](C)C/C=C/CCC[n+]2ccc(N(C)C)c3ccc(C(F)(F)F)cc32)N(C)C(=O)[C@H](C(C)C)N(C)C(=O)[C@H](CC(C)C)N(C)C(=O)[C@H](CC(C)C)N(C)C(=O)[C@@H](C)NC(=O)[C@H](C)NC(=O)[C@H](CC(C)C)N(C)C(=O)[C@H](C(C)C)NC(=O)[C@H](CC(C)C)N(C)C(=O)CN(C)C1=O [Compound 3, [Gly(1S,2R,E)-10-(4-dimethylamino-7-trifluoromethylquinolinium)1-hydroxy-2-methyldec-4-enoic acid]^1 CsA] | retain high levels inhibition | – | –
2 | C/C=C/C[C@@H](C)[C@@H](O)[C@H]1C(=O)N[C@@H](CC)C(=O)N(C)C(C/C=C/CCC[n+]2cccc3ccccc32)C(=O)N(C)[C@@H](CC(C)C)C(=O)N[C@@H](C(C)C)C(=O)N(C)[C@@H](CC(C)C)C(=O)N[C@@H](C)C(=O)N[C@H](C)C(=O)N(C)[C@@H](CC(C)C)C(=O)N(C)[C@@H](CC(C)C)C(=O)N(C)[C@@H](C(C)C)C(=O)N1C (stereo partly shown) [Compound 2, [Sar-(E)-Hexen-2-yl 6-quinolinium]^3 CsA] | – | 0.125 | –
3 | CC[C@@H]1NC(=O)[C@H]([C@H](O)[C@H](C)C/C=C/CCC[n+]2ccc(O)c3ccccc32)N(C)C(=O)[C@H](C(C)C)N(C)C(=O)[C@H](CC(C)C)N(C)C(=O)[C@H](CC(C)C)N(C)C(=O)[C@@H](C)NC(=O)[C@H](C)NC(=O)[C@H](CC(C)C)N(C)C(=O)[C@H](C(C)C)NC(=O)[C@H](CC(C)C)N(C)C(=O)CN(C)C1=O [Compound 5, [Gly-(1S,2R,E)-8-(4-hydroxyquinolinium)-1-hydroxy-2-methyloct-4-ene]^1 CsA] | – | 0.064 | –
4 | C=CCC1C(=O)N(C)[C@@H](CC(C)C)C(=O)N[C@@H](C(C)C)C(=O)N(C)[C@@H](CC(C)C)C(=O)N[C@@H](C)C(=O)N[C@H](C)C(=O)N(C)[C@@H](CC(C)C)C(=O)N(C)[C@@H](CC(C)C)C(=O)N(C)[C@@H](C(C)C)C(=O)N(C)[C@@H]([C@H](O)[C@H](C)C/C=C/CCC[n+]2ccc(N(C)C)c3ccc(C(F)(F)F)cc32)C(=O)N[C@@H](CC)C(=O)N1C (stereo partly shown) [Compound 4] | retain high levels inhibition | 0.073 | –
5 | C/C=C/C[C@@H](C)[C@@H](O)[C@H]1C(=O)N[C@@H](CC)C(=O)N(C)C(C/C=C/CCC[n+]2ccc(O)c3ccccc32)C(=O)N(C)[C@@H](CC(C)C)C(=O)N[C@@H](C(C)C)C(=O)N(C)[C@@H](CC(C)C)C(=O)N[C@@H](C)C(=O)N[C@H](C)C(=O)N(C)[C@@H](CC(C)C)C(=O)N(C)[C@@H](CC(C)C)C(=O)N(C)[C@@H](C(C)C)C(=O)N1C (stereo partly shown) [Compound 6, [Sar-(E)-Hexen-2-yl-6-(4-hydroxy)quinolinium]^3 CsA] | – | 0.046 | –
6 | CC[C@@H]1NC(=O)[C@H]([C@H](O)[C@H](C)C/C=C/CCC(=O)Nc2ccc(NCc3ccc(F)cc3)nc2N)N(C)C(=O)[C@H](C(C)C)N(C)C(=O)[C@H](CC(C)C)N(C)C(=O)[C@H](CC(C)C)N(C)C(=O)[C@@H](C)NC(=O)[C@H](C)NC(=O)[C@H](CC(C)C)N(C)C(=O)[C@H](C(C)C)NC(=O)[C@H](CC(C)C)N(C)C(=O)CN(C)C1=O [Reference Compound 1, [Gly-(1S,2R,E)-7-(flupirtine)-1-hydroxy-2-methyloct-4-enamide]^1 CsA, reference compound] | – | – | A similar reduction in toxicity was not observed
